Where two headings read alike, the source gives them in different places.
Test: Ocular tissue and plasma pharmacokinetics, 15 mg/kg single and BID oral, Dutch Belted rabbits (Example 3/5)
Format: in vivo
Method: Study design including group designation and dose levels are outlined in Table 4. […] Fifteen Dutch Belted and 5 New Zealand White rabbits were used as un-dosed controls. […] The dose volume was 5 mL/kg/dose for all groups. Safety was assessed with toxicological and ophthalmic examinations including slit lamp biomicroscopy, indirect ophthalmoscopy, rebound tonometry, and ultrasonic corneal pachymetry.
Analyst® software (Version 1.6.2) was used to capture the LC-MS/MS data and integrate the peak areas. Calibration standards and QCs were prepared in a blank solution of 75%:25% acetonitrile:water (v:v), ranging from 10 ng/mL to 10,000 ng/mL. Matrix matched standard and QC samples were prepared by mixing 2 μL of standard or QC sample above with 18 μL of appropriate ocular tissue or plasma. The final calibration standards ranged from 1 ng/mL to 1000 ng/mL. All plasma, retina, choroid-RPE, optic nerve, and vitreous humor samples were analyzed in a single run. Iris-ciliary body samples were analyzed in two runs due to a need for sample dilution. […] Dilution QCs were prepared at 5000 ng/mL where appropriate. Two sets of standards were used to bracket the analytical run at the beginning and end of the run. Three sets of QCs were included the analytical runs. All concentrations in ocular matrices are reported as ng/g based on the assumed density of 1 g/mL.
1, 6, 24, 96, 168, and 240 hours post-dose on Day 15, with the eyes collected at the same time as blood sampling. A single blood sample was taken from Groups 4 and 5 at sacrifice. Plasma, vitreous humor (VH), retina, choroid-retina pigmented epithelium (Choroid-RPE), optic nerve (ON), and iris-ciliary body (I-CB) were analyzed by LC-MS/MS to quantify test article concentrations. The lower limit of quantitation (LLOQ) in plasma and vitreous humor was 1.0 ng/mL. The LLOQ was 6.0 ng/g in retina, Choroid-RPE, and I-CB and the optic nerve LLOQ was 15 ng/g, assuming tissue density of 1 g/mL where relevant.
Study design including group designation and dose levels are outlined in Table 18.

[1] = Dutch Belted, rabbit, iris-ciliary body, po, 15 mg/kg, Iris-Ciliary Body, DB rabbit, 15 mg/kg BID, Day 15
[2] = Dutch Belted, rabbit, iris-ciliary body, po, 15 mg/kg, Iris-Ciliary Body, DB rabbit, 15 mg/kg single dose, Day 1
[3] = Dutch Belted, rabbit, vitreous humor, po, 15 mg/kg, Vitreous Humor, DB rabbit, 15 mg/kg BID, Day 15
[4] = Dutch Belted, rabbit, vitreous humor, po, 15 mg/kg, Vitreous Humor, DB rabbit, 15 mg/kg single dose, Day 1
[5] = plasma, DB rabbit, 15 mg/kg BID, Day 15
[6] = plasma, DB rabbit, 15 mg/kg single dose, Day 1
[7] = retina, DB rabbit, 15 mg/kg BID, Day 15
[8] = retina, DB rabbit, 15 mg/kg single dose, Day 1

CC(=O)c1nn(CC(=O)N2C[C@H](F)C[C@H]2C(=O)Nc2cccc(Br)n2)c2ccc(-c3cnc(C)nc3)cc12 [Compound 1, (2S,4R)-1-(2-(3-Acetyl-5-(2-methylpyrimidin-5-yl)-1H-indazol-1-yl)acetyl)-N-(6-bromopyridin-2-yl)-4-fluoropyrrolidine-2-carboxamide]
concentration at 0 h (Dutch Belted, rabbit, iris-ciliary body, po, 15 mg/kg, DB rabbit, 15 mg/kg BID oral, Day 15, 0 h, read-out: Mean Iris-Ciliary Body concentration): 2900 ng/g
concentration at 1 h (Dutch Belted, rabbit, iris-ciliary body, po, 15 mg/kg, DB rabbit, 15 mg/kg BID oral, Day 15, 1 h, read-out: Mean Iris-Ciliary Body concentration): 4920 ng/g
concentration at 6 h (Dutch Belted, rabbit, iris-ciliary body, po, 15 mg/kg, DB rabbit, 15 mg/kg BID oral, Day 15, 6 h, read-out: Mean Iris-Ciliary Body concentration): 3510 ng/g
concentration at 24 h (Dutch Belted, rabbit, iris-ciliary body, po, 15 mg/kg, DB rabbit, 15 mg/kg BID oral, Day 15, 24 h, read-out: Mean Iris-Ciliary Body concentration): 1640 ng/g
concentration at 96 h (Dutch Belted, rabbit, iris-ciliary body, po, 15 mg/kg, DB rabbit, 15 mg/kg BID oral, Day 15, 96 h, read-out: Mean Iris-Ciliary Body concentration): 1010 ng/g
concentration at 168 h (Dutch Belted, rabbit, iris-ciliary body, po, 15 mg/kg, DB rabbit, 15 mg/kg BID oral, Day 15, 168 h, read-out: Mean Iris-Ciliary Body concentration): 612 ng/g
concentration at 240 h (Dutch Belted, rabbit, iris-ciliary body, po, 15 mg/kg, DB rabbit, 15 mg/kg BID oral, Day 15, 240 h, read-out: Mean Iris-Ciliary Body concentration): 408 ng/g
concentration at 1 h (Dutch Belted, rabbit, iris-ciliary body, po, 15 mg/kg, DB rabbit, 15 mg/kg single oral dose, Day 1, 1 h, read-out: Mean Iris-Ciliary Body concentration): 1010 ng/g
concentration at 6 h (Dutch Belted, rabbit, iris-ciliary body, po, 15 mg/kg, DB rabbit, 15 mg/kg single oral dose, Day 1, 6 h, read-out: Mean Iris-Ciliary Body concentration): 528 ng/g
concentration at 24 h (Dutch Belted, rabbit, iris-ciliary body, po, 15 mg/kg, DB rabbit, 15 mg/kg single oral dose, Day 1, 24 h, read-out: Mean Iris-Ciliary Body concentration): 300 ng/g
concentration at 96 h (Dutch Belted, rabbit, iris-ciliary body, po, 15 mg/kg, DB rabbit, 15 mg/kg single oral dose, Day 1, 96 h, read-out: Mean Iris-Ciliary Body concentration): 57.9 ng/g
concentration at 168 h (Dutch Belted, rabbit, iris-ciliary body, po, 15 mg/kg, DB rabbit, 15 mg/kg single oral dose, Day 1, 168 h, read-out: Mean Iris-Ciliary Body concentration): 27.1 ng/g
concentration at 240 h (Dutch Belted, rabbit, iris-ciliary body, po, 15 mg/kg, DB rabbit, 15 mg/kg single oral dose, Day 1, 240 h, read-out: Mean Iris-Ciliary Body concentration): 33.6 ng/g
MRT inf [1]: 81.5 h
MRT last [1]: 76.2 h
half-life [1]: 107 h
Cmax (Dutch Belted, rabbit, iris-ciliary body, po, 15 mg/kg, Iris-Ciliary Body, DB rabbit, 15 mg/kg BID, Day 15, read-out: Cmax): 4920 ng/g
MRT inf [2]: 69 h
MRT last [2]: 46.2 h
half-life [2]: 56 h
Cmax (Dutch Belted, rabbit, iris-ciliary body, po, 15 mg/kg, Iris-Ciliary Body, DB rabbit, 15 mg/kg single dose, Day 1, read-out: Cmax): 1010 ng/g
concentration at 0 h (Dutch Belted, rabbit, plasma, po, 15 mg/kg, DB rabbit, 15 mg/kg BID oral, Day 15, 0 h, read-out: Mean plasma concentration): 55.2 ng/mL
concentration at 1 h (Dutch Belted, rabbit, plasma, po, 15 mg/kg, DB rabbit, 15 mg/kg BID oral, Day 15, 1 h, read-out: Mean plasma concentration): 845 ng/mL
concentration at 6 h (Dutch Belted, rabbit, plasma, po, 15 mg/kg, DB rabbit, 15 mg/kg BID oral, Day 15, 6 h, read-out: Mean plasma concentration): 92.2 ng/mL
concentration at 24 h (Dutch Belted, rabbit, plasma, po, 15 mg/kg, DB rabbit, 15 mg/kg BID oral, Day 15, 24 h, read-out: Mean plasma concentration): 5.6 ng/mL
concentration at 96 h (Dutch Belted, rabbit, plasma, po, 15 mg/kg, DB rabbit, 15 mg/kg BID oral, Day 15, 96 h, read-out: Mean plasma concentration): 3.19 ng/mL
concentration at 1 h (Dutch Belted, rabbit, plasma, po, 15 mg/kg, DB rabbit, 15 mg/kg single oral dose, Day 1, 1 h, read-out: Mean plasma concentration): 318 ng/mL
concentration at 6 h (Dutch Belted, rabbit, plasma, po, 15 mg/kg, DB rabbit, 15 mg/kg single oral dose, Day 1, 6 h, read-out: Mean plasma concentration): 33.7 ng/mL
concentration at 24 h (Dutch Belted, rabbit, plasma, po, 15 mg/kg, DB rabbit, 15 mg/kg single oral dose, Day 1, 24 h, read-out: Mean plasma concentration): 25.4 ng/mL
concentration at 1 h (Dutch Belted, rabbit, retina, oral, 15 mg/kg, DB rabbits, Day 1, 15 mg/kg single dose, 1 hr, read-out: Mean Retina Concentration): 145 ng/g
concentration at 6 h (Dutch Belted, rabbit, retina, oral, 15 mg/kg, DB rabbits, Day 1, 15 mg/kg single dose, 6 hr, read-out: Mean Retina Concentration): 29.6 ng/g
concentration at 24 h (Dutch Belted, rabbit, retina, oral, 15 mg/kg, DB rabbits, Day 1, 15 mg/kg single dose, 24 hr, read-out: Mean Retina Concentration): 24.7 ng/g
concentration at 0 h (Dutch Belted, rabbit, retina, oral, 15 mg/kg, DB rabbits, Day 15, 15 mg/kg BID, 0 hr, read-out: Mean Retina Concentration): 114 ng/g
concentration at 1 h (Dutch Belted, rabbit, retina, oral, 15 mg/kg, DB rabbits, Day 15, 15 mg/kg BID, 1 hr, read-out: Mean Retina Concentration): 576 ng/g
concentration at 6 h (Dutch Belted, rabbit, retina, oral, 15 mg/kg, DB rabbits, Day 15, 15 mg/kg BID, 6 hr, read-out: Mean Retina Concentration): 237 ng/g
concentration at 24 h (Dutch Belted, rabbit, retina, oral, 15 mg/kg, DB rabbits, Day 15, 15 mg/kg BID, 24 hr, read-out: Mean Retina Concentration): 74.3 ng/g
concentration at 96 h (Dutch Belted, rabbit, retina, oral, 15 mg/kg, DB rabbits, Day 15, 15 mg/kg BID, 96 hr, read-out: Mean Retina Concentration): 28.1 ng/g
concentration at 168 h (Dutch Belted, rabbit, retina, oral, 15 mg/kg, DB rabbits, Day 15, 15 mg/kg BID, 168 hr, read-out: Mean Retina Concentration): 36.5 ng/g
concentration at 240 h (Dutch Belted, rabbit, retina, oral, 15 mg/kg, DB rabbits, Day 15, 15 mg/kg BID, 240 hr, read-out: Mean Retina Concentration): 25.3 ng/g
concentration at 0 h (Dutch Belted, rabbit, retina, po, 15 mg/kg, DB rabbit, 15 mg/kg BID oral, Day 15, 0 h, read-out: Mean retina concentration): 114 ng/g
concentration at 1 h (Dutch Belted, rabbit, retina, po, 15 mg/kg, DB rabbit, 15 mg/kg BID oral, Day 15, 1 h, read-out: Mean retina concentration): 576 ng/g
concentration at 6 h (Dutch Belted, rabbit, retina, po, 15 mg/kg, DB rabbit, 15 mg/kg BID oral, Day 15, 6 h, read-out: Mean retina concentration): 237 ng/g
concentration at 24 h (Dutch Belted, rabbit, retina, po, 15 mg/kg, DB rabbit, 15 mg/kg BID oral, Day 15, 24 h, read-out: Mean retina concentration): 74.3 ng/g
concentration at 96 h (Dutch Belted, rabbit, retina, po, 15 mg/kg, DB rabbit, 15 mg/kg BID oral, Day 15, 96 h, read-out: Mean retina concentration): 28.1 ng/g
concentration at 168 h (Dutch Belted, rabbit, retina, po, 15 mg/kg, DB rabbit, 15 mg/kg BID oral, Day 15, 168 h, read-out: Mean retina concentration): 36.5 ng/g
concentration at 240 h (Dutch Belted, rabbit, retina, po, 15 mg/kg, DB rabbit, 15 mg/kg BID oral, Day 15, 240 h, read-out: Mean retina concentration): 25.3 ng/g
concentration at 1 h (Dutch Belted, rabbit, retina, po, 15 mg/kg, DB rabbit, 15 mg/kg single oral dose, Day 1, 1 h, read-out: Mean retina concentration): 145 ng/g
concentration at 6 h (Dutch Belted, rabbit, retina, po, 15 mg/kg, DB rabbit, 15 mg/kg single oral dose, Day 1, 6 h, read-out: Mean retina concentration): 29.6 ng/g
concentration at 24 h (Dutch Belted, rabbit, retina, po, 15 mg/kg, DB rabbit, 15 mg/kg single oral dose, Day 1, 24 h, read-out: Mean retina concentration): 24.7 ng/g
MRT last (Dutch Belted, rabbit, retina, po, 15 mg/kg, retina, DB rabbit, 15 mg/kg BID, Day 15): 71 h
concentration at 0 h (Dutch Belted, rabbit, vitreous humor, po, 15 mg/kg, DB rabbit, 15 mg/kg BID oral, Day 15, 0 h, read-out: Mean Vitreous Humor concentration): 3.27 ng/mL
concentration at 1 h (Dutch Belted, rabbit, vitreous humor, po, 15 mg/kg, DB rabbit, 15 mg/kg BID oral, Day 15, 1 h, read-out: Mean Vitreous Humor concentration): 15.4 ng/mL
concentration at 6 h (Dutch Belted, rabbit, vitreous humor, po, 15 mg/kg, DB rabbit, 15 mg/kg BID oral, Day 15, 6 h, read-out: Mean Vitreous Humor concentration): 6.45 ng/mL
concentration at 1 h (Dutch Belted, rabbit, vitreous humor, po, 15 mg/kg, DB rabbit, 15 mg/kg single oral dose, Day 1, 1 h, read-out: Mean Vitreous Humor concentration): 7.26 ng/mL
concentration at 6 h (Dutch Belted, rabbit, vitreous humor, po, 15 mg/kg, DB rabbit, 15 mg/kg single oral dose, Day 1, 6 h, read-out: Mean Vitreous Humor concentration): 3.66 ng/mL
AUC(0-t) [3]: 64 ng·h/mL
MRT last [3]: 2.23 h
Cmax (Dutch Belted, rabbit, vitreous humor, po, 15 mg/kg, Vitreous Humor, DB rabbit, 15 mg/kg BID, Day 15, read-out: Cmax): 15.4 ng/mL
AUC(0-t) [4]: 30.9 ng·h/mL
MRT last [4]: 2.48 h
Cmax (Dutch Belted, rabbit, vitreous humor, po, 15 mg/kg, Vitreous Humor, DB rabbit, 15 mg/kg single dose, Day 1, read-out: Cmax): 7.26 ng/mL
Tlast (Iris-Ciliary Body, DB rabbit, 15 mg/kg BID, Day 15): 240 h
Tlast (Iris-Ciliary Body, DB rabbit, 15 mg/kg single dose, Day 1): 240 h
Tlast (Vitreous Humor, DB rabbit, 15 mg/kg BID, Day 15): 6 h
Tlast (Vitreous Humor, DB rabbit, 15 mg/kg single dose, Day 1): 6 h
AUClast [5]: 3990 ng·h/mL
Cmax [5]: 845 ng/mL
MRTlast [5]: 6.51 h
Tlast [5]: 96 h
AUClast [6]: 1570 ng·h/mL
Cmax [6]: 318 ng/mL
MRTlast [6]: 5.58 h
Tlast [6]: 24 h
C-RPE drug concentration at least 10 days following the last oral administration (rabbit, 15 mg/kg BID): 340 ng/mL
Cmax [7]: 576 ng/m
Tlast [7]: 240 h
Cmax [8]: 145 ng/m
MRTlast [8]: 7.83 h
Tlast [8]: 24 h
